Measured values from PubChem BioAssay (NCI).
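48-hour exposure; five concentrations; linearly interpolated endpoints. GI50 is the concentration that inhibits growth by half. TGI denotes the concentration required for complete inhibition of growth.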

Assays:
Assay in all cases: NCI tumour cell line growth inhibition, 48 h
LOX IMVI melanoma = system: LOX IMVI melanoma
HS 578T breast = system: HS 578T breast
HOP-62 NSCLC = system: HOP-62 NSCLC
HT29 colon = system: HT29 colon
HCT-116 colon = system: HCT-116 colon
SR leukemia = system: SR leukemia
IGROV1 ovarian = system: IGROV1 ovarian
OVCAR-3 ovarian = system: OVCAR-3 ovarian
COLO 205 colon = system: COLO 205 colon
786-0 renal = system: 786-0 renal
NCI-H226 lung = system: NCI-H226 lung
NCI-H522 lung = system: NCI-H522 lung
NCI-H23 lung = system: NCI-H23 lung
MOLT-4 leukemia = system: MOLT-4 leukemia
SK-OV-3 ovarian = system: SK-OV-3 ovarian
SN12C renal = system: SN12C renal
SNB-19 CNS = system: SNB-19 CNS
RPMI-8226 leukemia = system: RPMI-8226 leukemia
PC-3 prostate = system: PC-3 prostate
SNB-75 CNS = system: SNB-75 CNS
K-562 leukemia = system: K-562 leukemia
TK-10 renal = system: TK-10 renal
SW-620 colon = system: SW-620 colon
KM12 colon = system: KM12 colon
M14 melanoma = system: M14 melanoma
SK-MEL-5 melanoma = system: SK-MEL-5 melanoma
BT-549 breast = system: BT-549 breast
OVCAR-5 ovarian = system: OVCAR-5 ovarian
HCC-2998 colon = system: HCC-2998 colon
MCF7 breast = system: MCF7 breast
A549 NSCLC = system: A549 NSCLC
RXF 393 renal = system: RXF 393 renal
ACHN renal = system: ACHN renal
SF-539 CNS = system: SF-539 CNS
HOP-92 NSCLC = system: HOP-92 NSCLC
NCI/ADR-RES ovarian = system: NCI/ADR-RES ovarian
MDA-MB-231 breast = system: MDA-MB-231 breast
CCRF-CEM leukemia = system: CCRF-CEM leukemia
OVCAR-8 ovarian = system: OVCAR-8 ovarian
SK-MEL-28 melanoma = system: SK-MEL-28 melanoma
NCI-H460 lung = system: NCI-H460 lung
SK-MEL-2 melanoma = system: SK-MEL-2 melanoma
UO-31 renal = system: UO-31 renal
MALME-3M melanoma = system: MALME-3M melanoma
T-47D breast = system: T-47D breast
A498 renal = system: A498 renal
UACC-257 melanoma = system: UACC-257 melanoma
UACC-62 melanoma = system: UACC-62 melanoma
OVCAR-4 ovarian = system: OVCAR-4 ovarian
CAKI-1 renal = system: CAKI-1 renal
SF-268 CNS = system: SF-268 CNS
U251 CNS = system: U251 CNS
HL-60(TB) leukemia = system: HL-60(TB) leukemia
HCT-15 colon = system: HCT-15 colon
MDA-MB-435 = system: MDA-MB-435
DU-145 prostate = system: DU-145 prostate

Work on N#CCCN1C/C(=C/c2ccccc2)C(=O)/C(=C/c2ccccc2)C1 yielded a GI50 (LOX IMVI melanoma) of 1.09 µM, a TGI (LOX IMVI melanoma) of 2.47 µM and a GI50 (HS 578T breast) of 2.96 µM. It also gave a TGI (HS 578T breast) of 13.3 µM, a GI50 (HOP-62 NSCLC) of 2.61 µM and a TGI (HOP-62 NSCLC) of 6.03 µM. The GI50 (HT29 colon) was 1.81 µM, the TGI (HT29 colon) was 3.91 µM and the GI50 (HCT-116 colon) was 0.397 µM. For the same molecule, the TGI (HCT-116 colon) was 1.88 µM, the GI50 (SR leukemia) was 0.289 µM and the TGI (SR leukemia) was > 100 µM. It also gave a GI50 (IGROV1 ovarian) of 3.66 µM, a TGI (IGROV1 ovarian) of 12.7 µM and a GI50 (OVCAR-3 ovarian) of 2.63 µM. For the same molecule, the TGI (OVCAR-3 ovarian) was 6.04 µM, the GI50 (COLO 205 colon) was 2.59 µM and the TGI (COLO 205 colon) was 6.42 µM. The GI50 (786-0 renal) was 1.92 µM, the TGI (786-0 renal) was 4.07 µM and the GI50 (NCI-H226 lung) was 18.1 µM. For the same molecule, the TGI (NCI-H226 lung) was 50.3 µM, the GI50 (NCI-H522 lung) was 1.9 µM and the TGI (NCI-H522 lung) was 3.56 µM. The GI50 (NCI-H23 lung) was 3.46 µM, the TGI (NCI-H23 lung) was 12.6 µM and the GI50 (MOLT-4 leukemia) was 2.95 µM. The TGI (MOLT-4 leukemia) was 17.9 µM, the GI50 (SK-OV-3 ovarian) was 4.09 µM and the TGI (SK-OV-3 ovarian) was 14.2 µM. It also gave a GI50 (SN12C renal) of 2.15 µM, a TGI (SN12C renal) of 4.79 µM and a GI50 (SNB-19 CNS) of 3.19 µM. For the same molecule, the TGI (SNB-19 CNS) was 13.6 µM, the GI50 (RPMI-8226 leukemia) was 0.295 µM and the TGI (RPMI-8226 leukemia) was 1.16 µM. The GI50 (PC-3 prostate) was 2.6 µM, the TGI (PC-3 prostate) was 7.9 µM and the GI50 (SNB-75 CNS) was 7.43 µM. For the same molecule, the TGI (SNB-75 CNS) was 21.3 µM, the GI50 (K-562 leukemia) was 0.744 µM and the TGI (K-562 leukemia) was > 100 µM. It also gave a GI50 (TK-10 renal) of 2.97 µM, a TGI (TK-10 renal) of 7.76 µM and a GI50 (SW-620 colon) of 0.647 µM. The TGI (SW-620 colon) was 2.47 µM, the GI50 (KM12 colon) was 1.59 µM and the TGI (KM12 colon) was 3.12 µM. It also gave a GI50 (M14 melanoma) of 2.12 µM, a TGI (M14 melanoma) of 4.63 µM and a GI50 (SK-MEL-5 melanoma) of 1.65 µM. It also gave a TGI (SK-MEL-5 melanoma) of 3.07 µM, a GI50 (BT-549 breast) of 2.14 µM and a TGI (BT-549 breast) of 4.23 µM. For the same molecule, the GI50 (OVCAR-5 ovarian) was 2.55 µM, the TGI (OVCAR-5 ovarian) was 6.6 µM and the GI50 (HCC-2998 colon) was 1.74 µM. The TGI (HCC-2998 colon) was 3.2 µM, the GI50 (MCF7 breast) was 0.395 µM and the TGI (MCF7 breast) was 2.35 µM. The GI50 (A549 NSCLC) was 3.8 µM, the TGI (A549 NSCLC) was 16.2 µM and the GI50 (RXF 393 renal) was 1.66 µM. It also gave a TGI (RXF 393 renal) of 3.38 µM, a GI50 (ACHN renal) of 1.83 µM and a TGI (ACHN renal) of 3.4 µM. The GI50 (SF-539 CNS) was 2.2 µM, the TGI (SF-539 CNS) was 4.98 µM and the GI50 (HOP-92 NSCLC) was 12.3 µM. The TGI (HOP-92 NSCLC) was 29.4 µM, the GI50 (NCI/ADR-RES ovarian) was 3.44 µM and the TGI (NCI/ADR-RES ovarian) was 31.7 µM. For the same molecule, the GI50 (MDA-MB-231 breast) was 2.75 µM, the TGI (MDA-MB-231 breast) was 7.06 µM and the GI50 (CCRF-CEM leukemia) was 0.498 µM. For the same molecule, the TGI (CCRF-CEM leukemia) was > 100 µM, the GI50 (OVCAR-8 ovarian) was 2.23 µM and the TGI (OVCAR-8 ovarian) was 6.03 µM. The GI50 (SK-MEL-28 melanoma) was 1.79 µM, the TGI (SK-MEL-28 melanoma) was 3.54 µM and the GI50 (NCI-H460 lung) was 1.92 µM. The TGI (NCI-H460 lung) was 3.91 µM, the GI50 (SK-MEL-2 melanoma) was 2.62 µM and the TGI (SK-MEL-2 melanoma) was 5.87 µM. For the same molecule, the GI50 (UO-31 renal) was 2.01 µM, the TGI (UO-31 renal) was 6.08 µM and the GI50 (MALME-3M melanoma) was 2.91 µM. For the same molecule, the TGI (MALME-3M melanoma) was 6.69 µM, the GI50 (T-47D breast) was 7.43 µM and the TGI (T-47D breast) was 21.4 µM. For the same molecule, the GI50 (A498 renal) was 13.4 µM, the TGI (A498 renal) was 26.8 µM and the GI50 (UACC-257 melanoma) was 1.91 µM. For the same molecule, the TGI (UACC-257 melanoma) was 4.64 µM, the GI50 (UACC-62 melanoma) was 1.73 µM and the TGI (UACC-62 melanoma) was 3.44 µM. It also gave a GI50 (OVCAR-4 ovarian) of 3.1 µM, a TGI (OVCAR-4 ovarian) of 13.1 µM and a GI50 (CAKI-1 renal) of 3.16 µM. It also gave a TGI (CAKI-1 renal) of 11.1 µM, a GI50 (SF-268 CNS) of 2.94 µM and a TGI (SF-268 CNS) of 8.88 µM. For the same molecule, the GI50 (U251 CNS) was 1.48 µM, the TGI (U251 CNS) was 3.12 µM and the GI50 (HL-60(TB) leukemia) was 2.97 µM. The TGI (HL-60(TB) leukemia) was 21.2 µM, the GI50 (HCT-15 colon) was 1.45 µM and the TGI (HCT-15 colon) was 3.54 µM. It also gave a GI50 (MDA-MB-435) of 2.13 µM, a TGI (MDA-MB-435) of 5.89 µM and a GI50 (DU-145 prostate) of 5.86 µM. For the same molecule, the TGI (DU-145 prostate) was 18.1 µM.
